Assay results: US20110130432A1, “Heterocyclic Carboxamides For Use As Thrombin Inhibitors” (ASTRAZENECA AB, priority 2008, published 2011)

Biological target: T1, Human α-thrombin (Homo sapiens, UniProt P00734)
T1 construct: Human α-thrombin; purchased Sigma Chemical Co. or Hematologic Technologies
Test: Test A: Determination of Thrombin Inhibition with a Chromogenic, Robotic Assay
Assay type: biochemical
Settings: chromogenic substrate S-2366 0.30 mmol/L, α-thrombin 0.020 NIHU/mL, 40 minutes incubation at 37° C.
Experimental: Determination of Thrombin Inhibition with a Chromogenic, Robotic Assay
The thrombin inhibitor potency is measured with a chromogenic substrate method, in a Plato 3300 robotic microplate processor (Rosys AG, CH-8634 Hombrechtikon, Switzerland), using 96-well, half volume microtitre plates (Costar, Cambridge, Mass., USA; Cat No 3690). Stock solutions of test substance in DMSO (72 μL), 0.1-1 mmol/L, are diluted serially 1:3 (24+48 μL) with DMSO to obtain ten different concentrations, which are analyzed as samples in the assay. 2 μL of test sample is diluted with 124 μL assay buffer, 12 μL of chromogenic substrate solution (S-2366, Chromogenix, Mölndal, Sweden) in assay buffer and finally 12 μL of α-thrombin solution (Human α-thrombin, Sigma Chemical Co. or Hematologic Technologies) in assay buffer, are added, and the samples mixed. The final assay concentrations are: test substance […], S-2366 0.30 mmol/L, α-thrombin 0.020 NIHU/mL The linear absorbance increment during 40 minutes incubation at 37° C. is used for calculation of percentage inhibition for the test samples, as compared to blanks without inhibitor. The IC50 value, corresponding to the inhibitor concentration which causes 50% inhibition of the thrombin activity, is calculated from a log concentration vs. % inhibition curve.

Structure (SMILES)	IC50 [µM]
O=C(NCc1cc(Cl)ccc1-n1cnnn1)[C@@H]1CC=NN1C(=O)C(O)c1cccc(F)c1F (stereo partly drawn) [Example 2, (5S)—N-[5-Chloro-2-(1H-tetrazol-1-yl)benzyl]-1-[(2,3-difluorophenyl)(hydroxy)acetyl]-4,5-dihydro-1H-pyrazole-5-carboxamide]	0.034
O=C(NCc1cc(Cl)ccc1-n1cnnn1)[C@@H]1CC=NN1C(=O)C(O)c1cc(F)cc(F)c1 (stereo partly drawn) [Example 4, (5S)—N-[5-Chloro-2-(1H-tetrazol-1-yl)benzyl]-1-[(3,5-difluorophenyl)(hydroxy)acetyl]-4,5-dihydro-1H-pyrazole-5-carboxamide]	0.018
O=C(NCc1cc(Cl)ccc1-n1cnnn1)[C@@H]1CC=NN1C(=O)[C@H](O)C1CCCC1 [Example 5, (5S)—N-[5-Chloro-2-(1H-tetrazol-1-yl)benzyl]-1-[(2R)-2-cyclopentyl-2-hydroxyacetyl]-4,5-dihydro-1H-pyrazole-5-carboxamide]	0.024
O=C(NCc1cc(Cl)ccc1-n1cnnn1)[C@@H]1CC=NN1C(=O)C(O)c1ccc(F)cc1F (stereo partly drawn) [Example 6, (5S)—N-[5-Chloro-2-(1H-tetrazol-1-yl)benzyl]-1-[(2,4-difluorophenyl)(hydroxy)acetyl]-4,5-dihydro-1H-pyrazole-5-carboxamide]	0.035
O=C(NCc1cc(Cl)ccc1-n1cnnn1)[C@@H]1CC=NN1C(=O)C1(O)CCOc2ccccc21 (some centres unmarked) [Example 12]	0.13
CC(C)(C)C[C@@H](N)C(=O)N1N=CC[C@H]1C(=O)NCc1cc(Cl)ccc1-n1cnnn1 [Example 18, (5S)—N-[5-Chloro-2-(1H-tetrazol-1-yl)benzyl]-1-(4-methyl-D-leucyl)-4,5-dihydro-1H-pyrazole-5-carboxamide]	0.0035
O=C(NCc1cc(Cl)ccc1-n1cnnn1)[C@@H]1CC=NN1C(=O)[C@H](O)CC1CC1 [Example 19, (5S)—N-[5-Chloro-2-(1H-tetrazol-1-yl)benzyl]-1-[(2R)-3-cyclopropyl-2-hydroxypropanoyl]-4,5-dihydro-1H-pyrazole-5-carboxamide]	0.031
CC(=O)O[C@@H](C(=O)N1N=CC[C@H]1C(=O)NCc1cc(Cl)ccc1-n1cnnn1)c1ccc(F)cc1 [Example 23, [(1R)-2-[(5S)-5-[[5-Chloro-2-(tetrazol-1-yl)phenyl]methylcarbamoyl]-4,5-dihydropyrazol-1-yl]-1-(4-fluorophenyl)-2-oxo-ethyl]acetate]	0.193
CC(C)CC(=O)O[C@@H](C(=O)N1N=CC[C@H]1C(=O)NCc1cc(Cl)ccc1-n1cnnn1)c1ccc(F)cc1 [Example 24, (1R)-2-[(5S)-5-{[5-Chloro-2-(1H-tetrazol-1-yl)benzyl]carbamoyl}-4,5-dihydro-1H-pyrazol-1-yl]-1-(4-fluorophenyl)-2-oxoethyl 3-methylbutanoate]	0.14
CCCC(=O)O[C@@H](C(=O)N1N=CC[C@H]1C(=O)NCc1cc(Cl)ccc1-n1cnnn1)c1ccc(F)cc1 [Example 25, (1R)-2-[(5S)-5-{[5-Chloro-2-(1H-tetrazol-1-yl)benzyl]carbamoyl}-4,5-dihydro-1H-pyrazol-1-yl]-1-(4-fluorophenyl)-2-oxoethyl butanoate]	0.16
CC(C)C(=O)O[C@@H](C(=O)N1N=CC[C@H]1C(=O)NCc1cc(Cl)ccc1-n1cnnn1)c1ccc(F)cc1 [Example 26, (1R)-2-[(5S)-5-{[5-Chloro-2-(1H-tetrazol-1-yl)benzyl]carbamoyl}-4,5-dihydro-1H-pyrazol-1-yl]-1-(4-fluorophenyl)-2-oxoethyl 2-methylpropanoate]	0.15
CCCCC(=O)O[C@@H](C(=O)N1N=CC[C@H]1C(=O)NCc1cc(Cl)ccc1-n1cnnn1)c1ccc(F)cc1 [Example 27, (1R)-2-[(5S)-5-{[5-Chloro-2-(1H-tetrazol-1-yl)benzyl]carbamoyl}-4,5-dihydro-1H-pyrazol-1-yl]-1-(4-fluorophenyl)-2-oxoethyl pentanoate]	0.14

Next, values leading:

IC50 [µM]	Structure (SMILES)
0.013	O=C(O[C@@H](C(=O)N1N=CC[C@H]1C(=O)NCc1cc(Cl)ccc1-n1cnnn1)c1ccc(F)cc1)c1ccccc1 [Example 29, (1R)-2-[(5S)-5-{[5-Chloro-2-(1H-tetrazol-1-yl)benzyl]carbamoyl}-4,5-dihydro-1H-pyrazol-1-yl]-1-(4-fluorophenyl)-2-oxoethyl benzoate]
0.66	CCC(=O)Oc1cc(C)cc(C)c1C(C)(C)CC(=O)O[C@@H](C(=O)N1N=CC[C@H]1C(=O)NCc1cc(Cl)ccc1-n1cnnn1)c1ccc(F)cc1 [Example 30, (R)-2-((S)-5-(5-Chloro-2-(1H-tetrazol-1-yl)benzylcarbamoyl)-4,5-dihydro-1H-pyrazol-1-yl)-1-(4-fluorophenyl)-2-oxoethyl 3-(2,4-dimethyl-6-(propionyloxy)phenyl)-3-methylbutanoate]
0.0097	O=C(NCc1cc(Cl)ccc1-n1cnnn1)[C@@H]1CCON1C(=O)[C@H](O)c1ccc(F)cc1 [Example 31, (3S)—N-[5-Chloro-2-(1H-tetrazol-1-yl)benzyl]-2-[(2R)-2-(4-fluorophenyl)-2-hydroxyacetyl]isoxazolidine-3-carboxamide]
0.17	CC(C)(C)OC[C@@H](N)C(=O)N1OCC[C@H]1C(=O)NCc1cc(Cl)ccc1-n1cnnn1 [Example 32, (3S)-2-(O-tert-Butyl-D-seryl)-N-[5-chloro-2-(1H-tetrazol-1-yl)benzyl]isoxazolidine-3-carboxamide]
0.1	O=C(NCc1cc(Cl)ccc1-n1cnnn1)[C@@H]1CCON1C(=O)C(O)c1ccc(F)cc1F (stereo partly drawn) [Example 33, (3S)—N-[5-Chloro-2-(1H-tetrazol-1-yl)benzyl]-2-[(2,4-difluorophenyl)(hydroxy)acetyl]isoxazolidine-3-carboxamide]
0.16	O=C(NCc1cc(Cl)ccc1-n1cnnn1)[C@@H]1CCON1C(=O)C(O)c1cccc(F)c1F (stereo partly drawn) [Example 34, (3S)—N-[5-Chloro-2-(1H-tetrazol-1-yl)benzyl]-2-[(2,3-difluorophenyl)(hydroxy)acetyl]isoxazolidine-3-carboxamide]
0.07	O=C(NCc1cc(Cl)ccc1-n1cnnn1)[C@@H]1CCON1C(=O)C(O)c1cc(F)cc(F)c1 (stereo partly drawn) [Example 35, (3S)—N-[5-Chloro-2-(1H-tetrazol-1-yl)benzyl]-2-[(3,5-difluorophenyl)(hydroxy)acetyl]isoxazolidine-3-carboxamide]
0.094	O=C(NCc1cc(Cl)ccc1-n1cnnn1)[C@@H]1CCON1C(=O)C(O)c1ccccc1F (stereo partly drawn) [Example 36, (3S)—N-[5-Chloro-2-(1H-tetrazol-1-yl)benzyl]-2-[(2-fluorophenyl)(hydroxy)acetyl]isoxazolidine-3-carboxamide]
0.016	Cc1cccc(C(O)C(=O)N2OCC[C@H]2C(=O)NCc2cc(Cl)ccc2-n2cnnn2)c1 (stereo partly drawn) [Example 37, (3S)—N-[5-Chloro-2-(1H-tetrazol-1-yl)benzyl]-2-[hydroxy(3-methylphenyl)acetyl]isoxazolidine-3-carboxamide]
0.043	CCCC[C@@H](O)C(=O)N1OCC[C@H]1C(=O)NCc1cc(Cl)ccc1-n1cnnn1 [Example 38, (3S)—N-[5-Chloro-2-(1H-tetrazol-1-yl)benzyl]-2-[(2R)-2-hydroxyhexanoyl]isoxazolidine-3-carboxamide]
0.013	CC(C)CC[C@@H](O)C(=O)N1OCC[C@H]1C(=O)NCc1cc(Cl)ccc1-n1cnnn1 [Example 39, (3S)—N-[5-Chloro-2-(1H-tetrazol-1-yl)benzyl]-2-[(2R)-2-hydroxy-5-methylhexanoyl]isoxazolidine-3-carboxamide]
